Measurements taken from ChEMBL document CHEMBL3046837, “Synthesis of some novel amino and thiotetrazole purine derivatives and investigation of their antimicrobial activity and DNA interactions” (Med Chem Res, 2013).
The source made the active and inactive calls. The calls are words filed in the database; no cut-off is given here.

Assays:
[1] = test system: Candida tropicalis; assay: Antifungal activity against Candida tropicalis ATCC 13803 after 72 hr by disk diffusion method; format: functional, organism-based
[2] = test system: Candida albicans; assay: Antifungal activity against Candida albicans ATCC 10231 after 72 hr by disk diffusion method; format: functional, organism-based
[3] = test system: Proteus vulgaris; assay: Antibacterial activity against Proteus vulgaris ATCC 8427 after 24 hr by disk diffusion method; format: functional, organism-based
[4] = test system: Escherichia coli; assay: Antibacterial activity against Escherichia coli ATCC 25922 after 24 hr by disk diffusion method; format: functional, organism-based
[5] = test system: Escherichia coli; assay: Antibacterial activity against Escherichia coli ATCC 35218 after 24 hr by disk diffusion method; format: functional, organism-based
[6] = test system: Pseudomonas aeruginosa; assay: Antibacterial activity against Pseudomonas aeruginosa ATCC 27853 after 24 hr by disk diffusion method; format: functional, organism-based
[7] = test system: Enterococcus faecalis; assay: Antibacterial activity against Enterococcus faecalis […] after 24 hr by disk diffusion method; format: functional, organism-based
[8] = test system: Bacillus subtilis; assay: Antibacterial activity against Bacillus subtilis […] after 24 hr by disk diffusion method; format: functional, organism-based
[9] = test system: Bacillus cereus; assay: Antibacterial activity against Bacillus cereus NRLL B-3008 after 24 hr by disk diffusion method; format: functional, organism-based
[10] = test system: Staphylococcus aureus; assay: Antibacterial activity against Staphylococcus aureus ATCC 25923 after 24 hr by disk diffusion method; format: functional, organism-based
[11] = test system: Escherichia coli; assay: Binding affinity to Escherichia coli pBR322 DNA assessed as appearance of DNA fragments at low concentration after 24 hr by agarose gel electrophoresis
[12] = test system: Escherichia coli; assay: Covalent binding to Escherichia coli pBR322 DNA adenine-adenine site assessed as inhibition of Hind3-mediated restriction digestion at 1250 uM by restriction endonuclease analysis
[13] = test system: Escherichia coli; assay: Covalent binding to Escherichia coli pBR322 DNA Guanine-guanine site assessed as inhibition of BamH1-mediated restriction digestion at 1250 uM by restriction endonuclease analysis
[14] = test system: Escherichia coli; assay: Covalent binding to Escherichia coli pBR322 DNA assessed as decrease in intensity of form 2 DNA at low concentration after 24 hr by agarose gel electrophoresis
[15] = test system: Escherichia coli; assay: Covalent binding to Escherichia coli pBR322 DNA assessed as increase in intensity of form 1 DNA at low concentration after 24 hr by agarose gel electrophoresis
[16] = test system: Escherichia coli; assay: Binding affinity to Escherichia coli pBR322 DNA assessed as decrease in mobility of form 1 DNA at low concentration after 24 hr by agarose gel electrophoresis
[17] = test system: Escherichia coli; assay: Covalent binding to Escherichia coli pBR322 DNA assessed as disappearance of form 2 DNA at low concentration after 24 hr by agarose gel electrophoresis
[18] = test system: Escherichia coli; assay: Covalent binding to Escherichia coli pBR322 DNA assessed as increase in mobility of form 1 DNA at high concentration after 24 hr by agarose gel electrophoresis
[19] = test system: Escherichia coli; assay: Covalent binding to Escherichia coli pBR322 DNA assessed as disappearance of form 2 DNA at high concentration after 24 hr by agarose gel electrophoresis

| Compound | Activity [1] | Activity [2] | Activity [3] | Activity [4] | Activity [5] | Activity [6] | Activity [7] | Activity [8] | Activity [9] | Activity [10] | Activity [11] | Activity [12] | Activity [13] | Activity [14] | Activity [15] | Activity [16] | Activity [17] | Activity [18] | Activity [19] |
| --- | --- | --- | --- | --- | --- | --- | --- | --- | --- | --- | --- | --- | --- | --- | --- | --- | --- | --- | --- |
| Cn1nnnc1Sc1ncnc2c1ncn2CC1CCCCC1 | inactive | inactive | inactive | inactive | inactive | inactive | inactive | inactive | inactive | inactive | Active | Active | Active | Active | Active |  |  |  |  |
| CCCCCCn1cnc2c(Sc3nnnn3C)ncnc21 | inactive | inactive | inactive | inactive | inactive | inactive | inactive | inactive | inactive | inactive |  | Active | Active |  |  | Active | Active |  |  |
| Cn1nnnc1Sc1ncnc2c1ncn2C | inactive | inactive | inactive | inactive | inactive | inactive | inactive | inactive | inactive | inactive |  | Active | Active |  |  |  |  | Active |  |
| CCCn1cnc2c(Nc3nnn[nH]3)ncnc21 | inactive | inactive | inactive | inactive | inactive | inactive | inactive | inactive | inactive | inactive | Active | Active | inactive |  |  | Active |  |  |  |
| CCn1cnc2c(Sc3nnnn3C)ncnc21 | inactive | inactive | inactive | inactive | inactive | inactive | inactive | inactive | inactive | inactive |  | Active | Active |  |  |  |  | Active | Active |
